Experimental data taken from ChEMBL document CHEMBL1201862, “PubChem BioAssay data set” (2004).
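Compound exposure: 48 hours, 5 concentrations, 96-well plates. Abbreviation: GI50, concentration required for 50% inhibition of growth.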 Calls of active or inactive are those of the source. Rule as the data show it: active = GI50 up to about 1.1 µM and inactive = higher.

What was measured:
Assay in all cases: NCI anticancer screen, dose series, 48 h
SNB-75 = tested on: SNB-75
HCT-15 = tested on: HCT-15
OVCAR-8 = tested on: OVCAR-8
TK-10 = tested on: TK-10
SK-OV-3 = tested on: SK-OV-3
LXFL 529 = tested on: LXFL 529
RXF 393 = tested on: RXF 393
Malme-3M = tested on: Malme-3M
SN12C = tested on: SN12C
CCRF-CEM = tested on: CCRF-CEM
K562 = tested on: K562
SK-MEL-2 = tested on: SK-MEL-2
NCI-H23 = tested on: NCI-H23
LOX IMVI = tested on: LOX IMVI
DLD-1 = tested on: DLD-1
NCI/ADR-RES = tested on: NCI/ADR-RES
MDA-N = tested on: MDA-N
Hs-578T = tested on: Hs-578T
DU-145 = tested on: DU-145
MDA-MB-435 = tested on: MDA-MB-435

SMILES	GI50 (SNB-75)	GI50 (HCT-15) [µM]	GI50 (OVCAR-8)	GI50 (TK-10)	GI50 (SK-OV-3)	GI50 (LXFL 529)	GI50 (RXF 393)	GI50 (Malme-3M)	GI50 (SN12C)	GI50 (CCRF-CEM)	GI50 (K562)	GI50 (SK-MEL-2)	GI50 (NCI-H23)	GI50 (LOX IMVI)	GI50 (DLD-1)	GI50 (NCI/ADR-RES)	GI50 (MDA-N)	GI50 (Hs-578T)	GI50 (DU-145)	GI50 (MDA-MB-435)
CC(C)(C)C(=O)N1C(C(=O)O)Cc2ccccc2[C@@H]1Cc1ccccc1 (stereo partly drawn)	> 100 µM (inactive)	> 100	> 100 µM (inactive)	> 100 µM (inactive)	> 100 µM (inactive)	> 100 µM (inactive)	> 100 µM (inactive)	> 100 µM (inactive)	> 100 µM (inactive)	> 100 µM (inactive)	> 100 µM (inactive)	> 100 µM (inactive)	> 100 µM (inactive)							
Cc1c2ccncc2c(C)c2c1[nH]c1ccc(OCCN(C)C)cc12	0.47 µM (active)	0.123	0.112 µM (active)		0.501 µM (active)		0.265 µM (active)	1.16 µM (inactive)	0.309 µM (active)	0.024 µM (active)	0.0614 µM (active)	0.658 µM (active)	0.416 µM (active)	0.063 µM (active)	0.0893 µM (active)	0.0916 µM (active)				
CC(C)OP(=O)(OC(C)C)/C(F)=N/Nc1ccc([N+](=O)[O-])cc1	38.7 µM (inactive)	> 100	> 100 µM (inactive)	> 100 µM (inactive)	> 100 µM (inactive)	> 100 µM (inactive)		> 100 µM (inactive)	> 100 µM (inactive)	> 100 µM (inactive)	> 100 µM (inactive)	> 100 µM (inactive)	> 100 µM (inactive)		> 100 µM (inactive)					
C1CCCCc2nc3c(nc2CCC1)c1nc2c(nc1c1nc4c(nc31)CCCCCCCC4)CCCCCCCC2	> 100 µM (inactive)	> 100	> 100 µM (inactive)	> 100 µM (inactive)	> 100 µM (inactive)	> 100 µM (inactive)		> 100 µM (inactive)	> 100 µM (inactive)	> 100 µM (inactive)	> 100 µM (inactive)	> 100 µM (inactive)	> 100 µM (inactive)	> 100 µM (inactive)	> 100 µM (inactive)					
COC1(O)c2cccc(Cl)c2C(=O)N1C1(C(N)=O)CCCCC1 (stereo not drawn)	> 100 µM (inactive)	> 100	> 100 µM (inactive)		> 100 µM (inactive)		> 100 µM (inactive)	> 100 µM (inactive)	> 100 µM (inactive)	> 100 µM (inactive)	> 100 µM (inactive)	> 100 µM (inactive)	> 37.5 µM (inactive)	> 100 µM (inactive)	> 100 µM (inactive)	> 100 µM (inactive)				
N#Cc1c(N2CCCC2)ncn(-c2ccccc2)c1=S	94.8 µM (inactive)	> 100	> 100 µM (inactive)	> 100 µM (inactive)	> 100 µM (inactive)		> 100 µM (inactive)	> 100 µM (inactive)	> 100 µM (inactive)	> 100 µM (inactive)	> 100 µM (inactive)	> 100 µM (inactive)	> 100 µM (inactive)	> 100 µM (inactive)		> 100 µM (inactive)	> 100 µM (inactive)	> 100 µM (inactive)	> 100 µM (inactive)	> 100 µM (inactive)
CC(C)=CCC/C(C)=C/CC/C(C)=C/C(O)c1ccccc1 (stereo not drawn)		18.8	20.6 µM (inactive)	29.1 µM (inactive)	21.8 µM (inactive)	17.8 µM (inactive)		19.2 µM (inactive)	19.1 µM (inactive)	23.1 µM (inactive)	61.4 µM (inactive)	19.8 µM (inactive)	22.7 µM (inactive)	19.6 µM (inactive)	18.5 µM (inactive)					
Cc1ccc(N/N=C2\C3=C(CCC(C)(C)O3)C(=O)c3ccccc32)cc1	19.2 µM (inactive)	27.5	34.4 µM (inactive)	26.8 µM (inactive)	> 100 µM (inactive)		32.4 µM (inactive)	9.16 µM (inactive)	14.6 µM (inactive)	15.1 µM (inactive)	32.4 µM (inactive)	18.9 µM (inactive)	10.8 µM (inactive)	10.3 µM (inactive)		25.6 µM (inactive)	4.43 µM (inactive)	11.6 µM (inactive)	12.4 µM (inactive)	17.9 µM (inactive)
O=C(C1=C(C(=O)c2ccccc2)SC2(S1)C(C(=O)c1ccccc1)=C(C(=O)c1ccccc1)Sc1c2ssc1=O)c1ccccc1	36.7 µM (inactive)	64.9	44.5 µM (inactive)	70.1 µM (inactive)	49.3 µM (inactive)		34.8 µM (inactive)	> 100 µM (inactive)	26.7 µM (inactive)	8.34 µM (inactive)	30.4 µM (inactive)	99.1 µM (inactive)	> 100 µM (inactive)	> 100 µM (inactive)		> 100 µM (inactive)	41.1 µM (inactive)	> 100 µM (inactive)	72.8 µM (inactive)	70.6 µM (inactive)
CC1SC2=NC3=C(c4ccccc4C3=O)C(c3ccccc3Cl)N2C1=O (stereo not drawn)	63 µM (inactive)	> 100	> 100 µM (inactive)	> 100 µM (inactive)	> 100 µM (inactive)	> 100 µM (inactive)		> 100 µM (inactive)	> 100 µM (inactive)	70.3 µM (inactive)	90.2 µM (inactive)	> 100 µM (inactive)	85.7 µM (inactive)	> 100 µM (inactive)	> 100 µM (inactive)					
CN1C(=O)N(C)C2(CCN(CC(CC3OCCO3)c3ccc(F)cc3)CC2)C1=O (stereo not drawn)	> 100 µM (inactive)	> 100	> 100 µM (inactive)	> 100 µM (inactive)	> 100 µM (inactive)		> 100 µM (inactive)	> 100 µM (inactive)	> 100 µM (inactive)	> 100 µM (inactive)	> 100 µM (inactive)	> 100 µM (inactive)	> 100 µM (inactive)	> 100 µM (inactive)		> 100 µM (inactive)	> 100 µM (inactive)	> 100 µM (inactive)	> 100 µM (inactive)	> 100 µM (inactive)
O=C(CCc1ccc(O)cc1)NCCc1cccc(O)c1	0.005 µM (active)	> 50	> 50 µM (inactive)	> 50 µM (inactive)	> 50 µM (inactive)		> 50 µM (inactive)	> 50 µM (inactive)	> 50 µM (inactive)	> 50 µM (inactive)	> 50 µM (inactive)	> 50 µM (inactive)	> 50 µM (inactive)	> 50 µM (inactive)		> 50 µM (inactive)	> 50 µM (inactive)	> 50 µM (inactive)	> 50 µM (inactive)	> 50 µM (inactive)
O=C(O)C(CSC(c1ccccc1)(c1ccccc1)c1ccccc1)/N=C/c1cccs1 (stereo not drawn)	5.48 µM (inactive)	4.24	2.55 µM (inactive)	10.8 µM (inactive)	0.968 µM (active)		2.07 µM (inactive)	3.6 µM (inactive)	3.27 µM (inactive)	1.87 µM (inactive)	3.54 µM (inactive)	2.06 µM (inactive)	4.94 µM (inactive)	4.34 µM (inactive)		14 µM (inactive)	0.357 µM (active)	3.2 µM (inactive)	3.85 µM (inactive)	0.324 µM (active)
COC1=CC(=O)OC(/C=C(C)/C=C/C2=C(C)CCCC2(C)C)C1 (stereo not drawn)	> 100 µM (inactive)		> 100 µM (inactive)	> 100 µM (inactive)	> 100 µM (inactive)	> 100 µM (inactive)	> 100 µM (inactive)	> 100 µM (inactive)	> 100 µM (inactive)	> 100 µM (inactive)	> 100 µM (inactive)	> 100 µM (inactive)	> 100 µM (inactive)		> 100 µM (inactive)					
c1ccc(COc2cccc3ccc[n+](Cc4ccccc4)c23)cc1	5.2 µM (inactive)	27.5		12.1 µM (inactive)	23.8 µM (inactive)	3.62 µM (inactive)	8.75 µM (inactive)	4.23 µM (inactive)		6.04 µM (inactive)	2.38 µM (inactive)	5.21 µM (inactive)	2.84 µM (inactive)		11.5 µM (inactive)					
N#CC(C#N)=C1CCC2C(=C(C#N)C#N)CCC12 (stereo not drawn)	> 100 µM (inactive)	> 100	> 100 µM (inactive)	> 100 µM (inactive)	> 100 µM (inactive)	> 100 µM (inactive)	> 100 µM (inactive)	> 100 µM (inactive)	> 100 µM (inactive)	> 100 µM (inactive)	> 100 µM (inactive)		> 100 µM (inactive)	> 100 µM (inactive)	> 100 µM (inactive)					
COc1ccc(C[C@H]2COC(=O)[C@@H]2Cc2cccc(Br)c2)cc1OC	8.99 µM (inactive)	29.7	24.4 µM (inactive)	30.4 µM (inactive)	26.6 µM (inactive)		23.6 µM (inactive)	21.2 µM (inactive)	27.5 µM (inactive)	5.11 µM (inactive)	5.97 µM (inactive)	26 µM (inactive)	21.2 µM (inactive)	3.85 µM (inactive)		24.2 µM (inactive)	20.7 µM (inactive)	32.3 µM (inactive)	33.3 µM (inactive)	26.6 µM (inactive)
CSc1nc2c(nc(N)n2C2OCC(O)C(O)C2O)c(=O)[nH]1 (stereo not drawn)	> 100 µM (inactive)		> 100 µM (inactive)	> 100 µM (inactive)	> 100 µM (inactive)	> 100 µM (inactive)	> 100 µM (inactive)	> 100 µM (inactive)	> 100 µM (inactive)	> 100 µM (inactive)	> 100 µM (inactive)		> 100 µM (inactive)	> 100 µM (inactive)	> 100 µM (inactive)					
